This experiment concerns ATF4 luciferase reporter in HEK293T cells. Nature of the experiment: ATF4-Luc assay (in vitro model of VWMD). The class given is cell-based, human. As to conditions: Homo sapiens, HEK-293T, 7 h, HEK293T cells carrying the ATF4 luciferase reporter, 1 μg/mL tunicamycin, One Glo luminescence. In a few lines: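 Stable HEK293T line expressing firefly luciferase behind the human ATF4 5′-UTR, treated with 1 μg/mL tunicamycin plus compound for 7 hours. Luminescence read with One Glo; EC50 determined.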
On the technique in general: In a reporter assay the amount or activity of a reporter protein is the signal.

Molecules are shown by their SMILES. pEC50: −log10 of the molar value. Where only a bound is given, the exact number is not on record here.

As to `O=C(NC12CC(n3cc(OCCOC(F)(F)F)cn3)(C1)C2)[C@@H]1CNc2cc(Cl)ccc2O1` [Compound 519, (2S)-6-chloro-N-(3-{4-[2-(trifluoromethoxy)ethoxy]-1H-pyrazol-1-yl}bicyclo[1.1.1]pentan-1-yl)-3,4-dihydro-2H-1,4-benzoxazine-2-carboxamide], the pEC50 (as a rule, the negative decadic logarithm of the EC50, by convention in mol/L) was 7.30 to 8.00.

Turning to `O=C(COc1ccc(Cl)c(F)c1)NC12CC(c3ccc(C(=O)N4CC(OCC(F)(F)F)C4)nc3)(C1)C2` [Compound 601, 2-(4-chloro-3-fluorophenoxy)-N-(3-{6-[3-(2,2,2-trifluoroethoxy)azetidine-1-carbonyl]pyridin-3-yl}bicyclo[1.1.1]pentan-1-yl)acetamide], the pEC50 is 7.30 to 8.00.

Take `O=C(NC12CC(n3cc(C(=O)N4CC(OC(F)(F)F)C4)cn3)(C1)C2)[C@H]1C[C@@H](O)c2cc(Cl)ccc2O1` [Compound 341, (2R,4R)-6-chloro-4-hydroxy-N-(3-{4-[3-(trifluoromethoxy)azetidine-1-carbonyl]-1H-pyrazol-1-yl}bicyclo[1.1.1]pentan-1-yl)-3,4-dihydro-2H-1-benzopyran-2-carboxamide]: the pEC50 is 7.30 to 8.00.

Regarding `O=C(NC12CC(n3cc(O[C@H]4C[C@@H](COC(F)(F)F)C4)cn3)(C1)C2)[C@H]1C[C@@H](O)c2cc(Cl)ccc2O1` [Compound 589, (2R,4R)-6-chloro-4-hydroxy-N-{3-[4-({(1s,3S)-3-[(trifluoromethoxy)methyl]cyclobutyl}oxy)-1H-pyrazol-1-yl]bicyclo[1.1.1]pentan-1-yl}-3,4-dihydro-2H-1-benzopyran-2-carboxamide], the negative-log EC50 (pEC50) was 7.30 to 8.00.

Regarding `O=C(NC12CC(n3cc(OCCCOC(F)(F)F)cn3)(C1)C2)[C@H]1C[C@@H](O)c2cc(C(F)(F)F)c(F)cc2O1` [Compound 635, (2R,4R)-7-fluoro-4-hydroxy-N-(3-{4-[3-(trifluoromethoxy)propoxy]-1H-pyrazol-1-yl}bicyclo[1.1.1]pentan-1-yl)-6-(trifluoromethyl)-3,4-dihydro-2H-1-benzopyran-2-carboxamide], the negative logarithm of the EC50 (pEC50) was > 8.00.

For the compound `COc1ccc2nn(C34CC(NC(=O)C5CNc6cc(C(F)(F)F)c(F)cc6O5)(C3)C4)cc2n1` (stereo not drawn) [Compound 654, 7-fluoro-N-[3-(5-methoxy-2H-pyrazolo[4,3-b]pyridin-2-yl)bicyclo[1.1.1]pentan-1-yl]-6-(trifluoromethyl)-3,4-dihydro-2H-1,4-benzoxazine-2-carboxamide], the pEC50 is 7.30 to 8.00.

For `O=C(NC12CC(n3cc(OCCOC(F)(F)F)cn3)(C1)C2)[C@H]1C[C@H](O)c2cc(Cl)c(Cl)cc2O1` [Compound 436, (2R,4S)-6,7-dichloro-4-hydroxy-N-(3-{4-[2-(trifluoromethoxy)ethoxy]-1H-pyrazol-1-yl}bicyclo[1.1.1]pentan-1-yl)-3,4-dihydro-2H-1-benzopyran-2-carboxamide], the negative logarithm of the EC50 (pEC50) is > 8.00.

Turning to `O=C(CO[C@H]1C[C@@H](OC(F)(F)F)C1)NC12CC(NC(=O)[C@@H]3C[C@@H](O)c4cc(Cl)ccc4O3)(C1)C2` [Compound 208, (2S,4R)-6-chloro-4-hydroxy-N-[3-(2-{[cis-3-(trifluoromethoxy)cyclobutyl]oxy}acetamido)bicyclo[1.1.1]pentan-1-yl]-3,4-dihydro-2H-1-benzopyran-2-carboxamide], the negative-log EC50 (pEC50) is > 8.00.

Regarding `O=C(COc1ccc(Cl)c(F)c1)NC12CC(n3cc([C@H]4C[C@@H](OC(F)(F)F)C4)nn3)(C1)C2` [Compound 620, 2-(4-chloro-3-fluorophenoxy)-N-(3-{4-[(1s,3s)-3-(trifluoromethoxy)cyclobutyl]-1H-1,2,3-triazol-1-yl}bicyclo[1.1.1]pentan-1-yl)acetamide], the pEC50 is > 8.00.

For the compound `O=C(NC12CC(n3cc4cc(OC(F)F)ccc4n3)(C1)C2)[C@H]1C[C@@H](O)c2cc(Cl)ccc2O1` [Compound 502, (2R,4R)-6-chloro-N-{3-[5-(difluoromethoxy)-2H-indazol-2-yl]bicyclo[1.1.1]pentan-1-yl}-4-hydroxy-3,4-dihydro-2H-1-benzopyran-2-carboxamide], the negative-log EC50 (pEC50) is 6.60 to 7.30.

Consider `O=C(NC12CC(n3cc([C@@H]4C[C@H]4COC(F)(F)F)cn3)(C1)C2)[C@H]1C[C@@H](O)c2cc(Cl)ccc2O1` (mixture of isomers) [Compound 372, (2R,4R)-6-chloro-4-hydroxy-N-[3-(4-{(1RS,2RS)-2-[(trifluoromethoxy)methyl]cyclopropyl}-1H-pyrazol-1-yl)bicyclo[1.1.1]pentan-1-yl]-3,4-dihydro-2H-1-benzopyran-2-carboxamide], for which the negative-log EC50 (pEC50) is 7.30 to 8.00.

On to `O=C(NC12CC(n3cc([C@@H]4C[C@H]4COC(F)(F)F)nn3)(C1)C2)[C@H]1C[C@@H](O)c2cc(Cl)ccc2O1` (mixture of isomers) [Compound 542, (2R,4R)-6-chloro-4-hydroxy-N-[3-(4-{(1RS,2RS)-2-[(trifluoromethoxy)methyl]cyclopropyl}-1H-1,2,3-triazol-1-yl)bicyclo[1.1.1]pentan-1-yl]-3,4-dihydro-2H-1-benzopyran-2-carboxamide], for which the pEC50 was > 8.00.

Turning to `O=C(NC12CC(n3cc(O[C@H]4CC[C@H](OC(F)(F)F)C4)cn3)(C1)C2)[C@H]1C[C@@H](O)c2cc(Cl)ccc2O1` (racemic) [Compound 586, (2R,4R)-6-chloro-4-hydroxy-N-[3-(4-{[(1RS,3RS)-3-(trifluoromethoxy)cyclopentyl]oxy}-1H-pyrazol-1-yl)bicyclo[1.1.1]pentan-1-yl]-3,4-dihydro-2H-1-benzopyran-2-carboxamide], the negative-log EC50 (pEC50) is 7.30 to 8.00.

As to `C[C@@H](COC(F)(F)F)N(C)c1cnn(C23CC(NC(=O)[C@H]4C[C@@H](O)c5cc(Cl)ccc5O4)(C2)C3)c1` [Compound 445, (2R,4R)-6-chloro-4-hydroxy-N-[3-(4-{methyl[(2S)-1-(trifluoromethoxy)propan-2-yl]amino}-1H-pyrazol-1-yl)bicyclo[1.1.1]pentan-1-yl]-3,4-dihydro-2H-1-benzopyran-2-carboxamide], the pEC50 was 5.70 to 6.30.

Regarding `O=C(NC12CC(c3ccnc(OCCOC(F)(F)F)n3)(C1)C2)[C@H]1C[C@@H](O)c2cc(Cl)ccc2O1` [Compound 525, (2R,4R)-6-chloro-4-hydroxy-N-(3-{2-[2-(trifluoromethoxy)ethoxy]pyrimidin-4-yl}bicyclo[1.1.1]pentan-1-yl)-3,4-dihydro-2H-1-benzopyran-2-carboxamide], the pEC50 was 7.30 to 8.00.

For `O=C(CO[C@H]1C[C@@H](OC(F)(F)F)C1)N[C@H]1C[C@H]2C[C@@H]1C[C@@H]2NC(=O)[C@H]1C[C@@H](O)c2cc(C(F)(F)F)c(F)cc2O1` [Compound 646, (2R,4R)-7-fluoro-4-hydroxy-N-[(1R,2S,4R,5S)-5-(2-{[(1s,3R)-3-(trifluoromethoxy)cyclobutyl]oxy}acetamido)bicyclo[2.2.1]heptan-2-yl]-6-(trifluoromethyl)-3,4-dihydro-2H-1-benzopyran-2-carboxamide], the pEC50 is > 8.00.

For `O=C(COc1ccc(Cl)c(F)c1)N[C@H]1C[C@H]2O[C@@H]1CC2c1nnc([C@H]2C[C@@H](OC(F)(F)F)C2)o1` (mixture of isomers) [Compound 168, 2-(4-chloro-3-fluorophenoxy)-N-[rac-(1R,2S,4R,5S)-5-{5-[cis-3-(trifluoromethoxy)cyclobutyl]-1,3,4-oxadiazol-2-yl}-7-oxabicyclo[2.2.1]heptan-2-yl]acetamide], the negative-log EC50 (pEC50) was 6.30 to 6.60.

On to `COc1ncc(-c2cnn(C34CC(NC(=O)[C@@H]5C[C@H](O)c6cc(Cl)ccc6O5)(C3)C4)c2)cn1` [Compound 319, (2S,4S)-6-chloro-4-hydroxy-N-{3-[4-(2-methoxypyrimidin-5-yl)-1H-pyrazol-1-yl]bicyclo[1.1.1]pentan-1-yl}-3,4-dihydro-2H-1-benzopyran-2-carboxamide], for which the pEC50 is 6.30 to 6.60.

Take `O=C(NC12CC(c3ccnc(-n4cc(C(F)(F)F)cn4)c3)(C1)C2)[C@H]1C[C@@H](O)c2cc(C(F)(F)F)ccc2O1` [Compound 558, (2R,4R)-4-hydroxy-6-(rifluoromethyl)-N-(3-{2-[4-(trifluoromethyl)-1H-pyrazol-1-yl]pyridin-4-yl}bicyclo[1.1.1]pentan-1-yl)-3,4-dihydro-2H-1-benzopyran-2-carboxamide]: the negative-log EC50 (pEC50) is 7.30 to 8.00.

In the case of `COc1ccc2nn(C34CC(NC(=O)[C@H]5C[C@@H](O)c6cc(Cl)ccc6O5)(C3)C4)cc2c1` [Compound 501, (2R,4R)-6-chloro-4-hydroxy-N-[3-(5-methoxy-2H-indazol-2-yl)bicyclo[1.1.1]pentan-1-yl]-3,4-dihydro-2H-1-benzopyran-2-carboxamide], the negative logarithm of the EC50 (pEC50) was 7.30 to 8.00.

Take `O=C(NC12CC(n3cc(-c4ccc(OC(F)(F)F)c(F)c4)cn3)(C1)C2)[C@H]1C[C@@H](O)c2cc(Cl)ccc2O1` [Compound 312, (2R,4R)-6-chloro-N-(3-{4-[3-fluoro-4-(trifluoromethoxy)phenyl]-1H-pyrazol-1-yl}bicyclo[1.1.1]pentan-1-yl)-4-hydroxy-3,4-dihydro-2H-1-benzopyran-2-carboxamide]: the negative logarithm of the EC50 (pEC50) was > 8.00.

On to `C[Si]1(C)CCN(C(=O)c2cnn(C34CC(NC(=O)[C@H]5C[C@@H](O)c6cc(Cl)ccc6O5)(C3)C4)c2)C1` [Compound 401, (2R,4R)-6-chloro-N-{3-[4-(3,3-dimethyl-1,3-azasilolidine-1-carbonyl)-1H-pyrazol-1-yl]bicyclo[1.1.1]pentan-1-yl}-4-hydroxy-3,4-dihydro-2H-1-benzopyran-2-carboxamide], for which the negative logarithm of the EC50 (pEC50) was 6.30 to 6.60.

Consider `O=C(NC12CC(n3cc(-c4ccc(C(F)(F)F)cn4)cn3)(C1)C2)C1CNc2cc(C(F)(F)F)c(F)cc2O1` (stereo not drawn) [Compound 591, 7-fluoro-6-(trifluoromethyl)-N-(3-{4-[5-(trifluoromethyl)pyridin-2-yl]-1H-pyrazol-1-yl}bicyclo[1.1.1]pentan-1-yl)-3,4-dihydro-2H-1,4-benzoxazine-2-carboxamide], for which the pEC50 is 7.30 to 8.00.

Consider `O=C(N[C@H]1CC[C@H](n2cc(OCC(F)(F)F)cn2)CC1)[C@H]1C[C@@H](O)c2cc(Cl)ccc2O1` [Compound 524, (2R,4R)-6-chloro-4-hydroxy-N-{(1r,4R)-4-[4-(2,2,2-trifluoroethoxy)-1H-pyrazol-1-yl]cyclohexyl}-3,4-dihydro-2H-1-benzopyran-2-carboxamide], for which the pEC50 was 7.30 to 8.00.

(Values after patent US20250145594A1, “MODULATORS OF THE INTEGRATED STRESS PATHWAY” (Calico Life Sciences LLC, priority 2020, published 2025).)
